Reference: patent US8846704B2, “Thiopyrimidine-based compounds and uses thereof” (YM Biosciences Austraila Pty Ltd, priority 2007, dated 2014)

Key:
Type in all cases: biochemical
[1] = target: T1, Bmx(h) (Homo sapiens, UniProt P51813); experiment: Upstate KinaseProfiler enzyme assay, Bmx; conditions: 500 nM compound; read-out: Percent inhibition at 500 nM Bmx(h)
T1 construct: purchased Upstate Biotechnology (Dundee, UK), KinaseProfiler service
T1 sequence (P51813 1-675): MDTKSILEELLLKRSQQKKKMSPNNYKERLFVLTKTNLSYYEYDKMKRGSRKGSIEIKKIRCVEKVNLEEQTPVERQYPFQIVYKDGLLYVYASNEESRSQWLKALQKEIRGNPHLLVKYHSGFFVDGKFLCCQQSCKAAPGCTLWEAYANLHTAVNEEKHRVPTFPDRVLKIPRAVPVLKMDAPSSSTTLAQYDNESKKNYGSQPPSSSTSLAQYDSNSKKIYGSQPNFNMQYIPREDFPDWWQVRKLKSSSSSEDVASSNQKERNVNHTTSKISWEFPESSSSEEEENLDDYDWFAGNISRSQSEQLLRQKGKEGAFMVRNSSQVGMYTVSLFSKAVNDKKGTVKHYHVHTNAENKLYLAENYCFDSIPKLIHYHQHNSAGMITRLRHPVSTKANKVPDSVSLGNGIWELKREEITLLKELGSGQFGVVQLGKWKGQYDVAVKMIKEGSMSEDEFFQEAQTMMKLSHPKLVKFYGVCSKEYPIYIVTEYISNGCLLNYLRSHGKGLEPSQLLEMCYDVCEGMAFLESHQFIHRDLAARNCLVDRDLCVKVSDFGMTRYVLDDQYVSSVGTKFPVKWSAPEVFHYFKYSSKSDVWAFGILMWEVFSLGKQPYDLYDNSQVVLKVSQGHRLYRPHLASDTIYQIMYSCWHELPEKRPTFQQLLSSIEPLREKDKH
Description: (§1) Further enzyme assays were conducted at Upstate Biotechnology (Dundee, UK) in the KinaseProfiler™ Assay system.
(§2) The general protocol is as follows. All kinases are pre-diluted to a 10× working concentration prior to addition into the assay. The composition of the dilution buffer for the kinases is 20 mM MOPS pH 7.0, 1 mM EDTA, 0.1% β-mercaptoethanol, 0.01% Brij-35, 5% glycerol, 1 mg/ml BSA. All substrates are dissolved and diluted to working stocks in de-ionised water.

[2] = target: T2, BTK(h) (Homo sapiens, UniProt Q06187); experiment: Upstate KinaseProfiler enzyme assay, BTK; conditions: 500 nM compound; read-out: Percent inhibition at 500 nM BTK(h)
T2 construct: purchased Upstate Biotechnology (Dundee, UK), KinaseProfiler service
Description: as §1, §2

[3] = target: T3, Blk(m) (Mus musculus, UniProt P16277); experiment: Upstate KinaseProfiler enzyme assay, Blk; conditions: 500 nM compound; read-out: Percent inhibition at 500 nM Blk(m)
T3 construct: purchased Upstate Biotechnology (Dundee, UK), KinaseProfiler service
Description: as §1, §2

[4] = target: T4, KDR(h) (Homo sapiens, UniProt P35968); experiment: Upstate KinaseProfiler enzyme assay, KDR; conditions: 500 nM compound; read-out: Percent inhibition at 500 nM KDR(h)
T4 construct: purchased Upstate Biotechnology (Dundee, UK), KinaseProfiler service
Description: as §1, §2

[5] = target: T5, Flt 4(h) (Homo sapiens, UniProt P35916); experiment: Upstate KinaseProfiler enzyme assay, Flt 4; conditions: 500 nM compound; read-out: Percent inhibition at 500 nM Flt 4(h)
T5 construct: purchased Upstate Biotechnology (Dundee, UK), KinaseProfiler service
Description: as §1, §2

[6] = target: T6, Flt 1(h) (Homo sapiens, UniProt P17948); experiment: Upstate KinaseProfiler enzyme assay, Flt 1; conditions: 500 nM compound; read-out: Percent inhibition at 500 nM Flt 1(h)
T6 construct: purchased Upstate Biotechnology (Dundee, UK), KinaseProfiler service
Description: as §1, §2

T3 sequence (P16277 whole entry): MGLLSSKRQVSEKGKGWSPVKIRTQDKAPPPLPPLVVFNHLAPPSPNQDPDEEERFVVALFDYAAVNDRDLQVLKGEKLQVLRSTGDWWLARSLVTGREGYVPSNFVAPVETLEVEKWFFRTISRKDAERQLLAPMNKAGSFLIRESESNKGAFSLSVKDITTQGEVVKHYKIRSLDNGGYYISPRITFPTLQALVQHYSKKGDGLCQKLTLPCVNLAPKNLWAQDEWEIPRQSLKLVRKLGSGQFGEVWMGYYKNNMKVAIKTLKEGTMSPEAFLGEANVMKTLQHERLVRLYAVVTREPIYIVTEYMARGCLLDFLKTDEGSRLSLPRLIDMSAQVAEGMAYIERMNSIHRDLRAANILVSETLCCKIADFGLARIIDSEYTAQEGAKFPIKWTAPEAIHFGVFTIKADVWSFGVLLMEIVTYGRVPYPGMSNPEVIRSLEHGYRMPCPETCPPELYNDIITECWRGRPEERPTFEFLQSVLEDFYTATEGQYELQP
T5 sequence (P35916 25-1363): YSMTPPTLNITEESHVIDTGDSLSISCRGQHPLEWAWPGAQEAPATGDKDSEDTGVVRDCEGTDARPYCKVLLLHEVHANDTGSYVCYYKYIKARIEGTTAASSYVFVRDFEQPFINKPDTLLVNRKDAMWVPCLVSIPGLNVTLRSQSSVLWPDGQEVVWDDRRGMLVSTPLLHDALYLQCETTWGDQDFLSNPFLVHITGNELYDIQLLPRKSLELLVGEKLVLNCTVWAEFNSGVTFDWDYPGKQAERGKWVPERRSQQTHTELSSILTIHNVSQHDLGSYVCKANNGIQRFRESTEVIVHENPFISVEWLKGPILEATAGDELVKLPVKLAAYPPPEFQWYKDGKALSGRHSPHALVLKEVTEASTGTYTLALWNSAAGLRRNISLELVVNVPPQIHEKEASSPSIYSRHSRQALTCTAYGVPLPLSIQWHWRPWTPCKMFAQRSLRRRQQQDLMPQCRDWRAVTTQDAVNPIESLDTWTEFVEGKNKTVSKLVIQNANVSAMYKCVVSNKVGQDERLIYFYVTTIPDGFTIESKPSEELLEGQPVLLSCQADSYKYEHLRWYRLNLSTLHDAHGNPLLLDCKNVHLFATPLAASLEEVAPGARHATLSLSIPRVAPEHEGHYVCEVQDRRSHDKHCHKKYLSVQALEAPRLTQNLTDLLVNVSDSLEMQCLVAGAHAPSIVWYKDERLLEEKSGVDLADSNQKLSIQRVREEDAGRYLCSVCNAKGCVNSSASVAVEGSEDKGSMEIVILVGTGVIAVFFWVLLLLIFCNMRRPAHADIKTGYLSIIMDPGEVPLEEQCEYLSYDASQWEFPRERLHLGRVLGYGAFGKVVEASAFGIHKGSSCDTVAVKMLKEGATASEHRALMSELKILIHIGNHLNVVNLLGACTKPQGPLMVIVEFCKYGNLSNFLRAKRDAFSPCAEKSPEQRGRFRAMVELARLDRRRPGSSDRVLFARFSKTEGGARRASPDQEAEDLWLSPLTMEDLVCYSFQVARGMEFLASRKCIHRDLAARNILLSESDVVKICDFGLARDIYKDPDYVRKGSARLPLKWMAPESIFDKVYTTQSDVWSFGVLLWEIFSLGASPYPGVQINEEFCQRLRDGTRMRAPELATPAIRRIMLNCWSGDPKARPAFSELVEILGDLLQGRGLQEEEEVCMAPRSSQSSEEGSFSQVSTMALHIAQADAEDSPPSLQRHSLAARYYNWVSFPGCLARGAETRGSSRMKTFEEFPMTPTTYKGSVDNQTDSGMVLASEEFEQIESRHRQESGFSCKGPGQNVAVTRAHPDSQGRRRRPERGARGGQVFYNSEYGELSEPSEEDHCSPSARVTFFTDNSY
T6 sequence (P17948 27-1338): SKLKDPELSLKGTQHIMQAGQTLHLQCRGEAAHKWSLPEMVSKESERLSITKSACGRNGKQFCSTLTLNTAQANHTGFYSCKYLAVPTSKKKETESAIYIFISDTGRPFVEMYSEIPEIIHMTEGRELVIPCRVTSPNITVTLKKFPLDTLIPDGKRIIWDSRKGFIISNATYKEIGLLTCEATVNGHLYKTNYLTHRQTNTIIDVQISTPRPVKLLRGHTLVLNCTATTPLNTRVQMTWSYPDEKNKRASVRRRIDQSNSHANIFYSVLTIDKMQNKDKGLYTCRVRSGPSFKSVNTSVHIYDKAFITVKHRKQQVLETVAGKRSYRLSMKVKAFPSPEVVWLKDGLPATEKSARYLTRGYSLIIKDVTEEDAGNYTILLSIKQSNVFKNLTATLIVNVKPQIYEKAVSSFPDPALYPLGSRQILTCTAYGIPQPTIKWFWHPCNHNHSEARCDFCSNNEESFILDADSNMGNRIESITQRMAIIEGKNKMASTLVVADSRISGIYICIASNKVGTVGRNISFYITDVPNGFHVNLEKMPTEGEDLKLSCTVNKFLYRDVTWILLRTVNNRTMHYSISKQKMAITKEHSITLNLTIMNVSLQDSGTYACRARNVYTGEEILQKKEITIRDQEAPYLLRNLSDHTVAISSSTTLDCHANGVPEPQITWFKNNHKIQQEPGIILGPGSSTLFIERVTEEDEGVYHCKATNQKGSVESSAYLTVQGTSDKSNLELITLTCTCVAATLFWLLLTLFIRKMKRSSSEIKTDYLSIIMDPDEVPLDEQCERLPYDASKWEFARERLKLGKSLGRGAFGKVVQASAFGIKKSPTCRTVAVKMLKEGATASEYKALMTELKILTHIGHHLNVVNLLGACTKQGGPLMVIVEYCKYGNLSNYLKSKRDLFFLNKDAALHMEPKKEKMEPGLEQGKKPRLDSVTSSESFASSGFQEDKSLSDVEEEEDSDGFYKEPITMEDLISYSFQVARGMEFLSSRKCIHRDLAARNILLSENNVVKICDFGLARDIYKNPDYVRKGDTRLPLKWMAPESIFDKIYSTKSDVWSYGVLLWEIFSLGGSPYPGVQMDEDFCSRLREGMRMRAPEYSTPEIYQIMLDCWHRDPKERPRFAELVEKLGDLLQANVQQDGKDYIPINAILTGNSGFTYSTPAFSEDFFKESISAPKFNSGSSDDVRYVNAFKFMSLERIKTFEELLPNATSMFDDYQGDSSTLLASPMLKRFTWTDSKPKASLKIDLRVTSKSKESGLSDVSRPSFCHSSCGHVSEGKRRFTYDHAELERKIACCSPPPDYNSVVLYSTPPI
T2 sequence (Q06187 whole entry): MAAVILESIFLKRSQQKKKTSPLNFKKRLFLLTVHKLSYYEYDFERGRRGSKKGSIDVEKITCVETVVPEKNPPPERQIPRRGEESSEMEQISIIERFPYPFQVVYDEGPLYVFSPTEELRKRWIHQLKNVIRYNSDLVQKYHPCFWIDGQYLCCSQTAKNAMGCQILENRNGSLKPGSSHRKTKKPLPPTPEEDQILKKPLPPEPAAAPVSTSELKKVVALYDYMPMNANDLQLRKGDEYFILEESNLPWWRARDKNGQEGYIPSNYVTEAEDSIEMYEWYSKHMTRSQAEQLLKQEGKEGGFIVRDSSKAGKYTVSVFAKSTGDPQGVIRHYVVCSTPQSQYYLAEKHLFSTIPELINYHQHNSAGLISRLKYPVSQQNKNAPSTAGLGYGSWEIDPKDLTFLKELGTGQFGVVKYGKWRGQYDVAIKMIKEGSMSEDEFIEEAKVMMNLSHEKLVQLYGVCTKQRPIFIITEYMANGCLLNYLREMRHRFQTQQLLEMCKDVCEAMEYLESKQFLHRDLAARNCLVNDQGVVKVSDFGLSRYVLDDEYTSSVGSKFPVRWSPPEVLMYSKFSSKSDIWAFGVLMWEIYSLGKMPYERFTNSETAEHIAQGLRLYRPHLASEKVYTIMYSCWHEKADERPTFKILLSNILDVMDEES

SMILES	inhibition at 0.5 µM [1]	inhibition at 0.5 µM [2]	inhibition at 0.5 µM [3]	inhibition at 0.5 µM [4]	inhibition at 0.5 µM [5]	inhibition at 0.5 µM [6]
C=CC(=O)NCc1ccc(Sc2ccnc(Nc3ccc(N4CCOCC4)cc3)n2)cc1 [Compound 111, N-(4-(2-(4-morpholinophenylamino)pyrimidin-4-ylthio)benzyl)acrylamide]	100%	100%	100%	100%		
C=CC(=O)Nc1ccc(Sc2nc(Nc3ccc(N4CCOCC4)c(OC)c3)ncc2C)cc1 [Compound 248, N-(4-(2-(3-methoxy-4-morpholinophenylao)-5-methylpyrimidin-4-ylthio)phenyl)acrylamide]	91%	80%	92%	95%	100%	95%
C=CC(=O)Nc1ccc(Sc2nc(Nc3ccc(OC)c(OC)c3)ncc2C)cc1 [Compound 241, N-(4-(2-(3,4-dimethoxyphenylao)-5-methylpyrimidin-4-ylthio)phenyl)acrylamide]	92%	88%	98%	97%	100%	100%
C=CC(=O)Nc1ccc(Sc2ccnc(Nc3ccc(N4CCN(C)CC4)cc3)n2)cc1 [Compound 238, N-(4-(2-(4-(4-methylpiperazin-1-yl)phenylao)pyrimidin-4-ylthio)phenyl)acrylamide]	90%		99%	95%	99%	97%
C=CC(=O)Nc1cccc(Nc2nccc(Sc3ccc(OC)cc3)n2)c1 [Compound 42, N-(3-(4-(4-methoxyphenylthio)pyrimidin-2-ylao)phenyl)acrylamide]	100%	100%	59%	100%		
Cc1cnc(Nc2ccc(N3CCOCC3)cc2)nc1Sc1c(C)cc(N)cc1C [Compound 165, 4-(4-ao-2,6-dimethylphenylthio)-5-methyl-N-(4-morpholinophenyl)pyrimidin-2-ae]	40%		0%	86%	99%	43%
C=CC(=O)Nc1ccc(Sc2ccnc(Nc3ccc(N4CCOCC4)cc3)n2)cc1 [Compound 25, N-(4-(2-(4-morpholinophenylamino)pyrimidin-4-ylthio)phenyl)acrylamide]	97%	83%	71%			
C=CC(=O)Nc1ccc(Sc2ccnc(Nc3ccc(S(N)(=O)=O)c(OC)c3)n2)cc1 [Compound 374, N-(4-(2-(3-methoxy-4-sulfamoylphenylao)pyrimidin-4-ylthio)phenyl)acrylamide]	91%	96%	96%	96%	100%	100%
C=CC(=O)Nc1ccc(Sc2nc(Nc3cccc(CO)c3)ncc2C)cc1 [Compound 280, N-(4-(2-(3-(hydroxymethyl)phenylao)-5-methylpyrimidin-4-ylthio)phenyl)acrylamide]	98%	97%	99%	97%	100%	100%
C=CC(=O)Nc1ccc(Sc2nc(Nc3ccc(NS(C)(=O)=O)cc3)ncc2C)cc1 [Compound 285, N-(4-(5-methyl-2-(4-(methylsulfonamido)phenylao)pyrimidin-4-ylthio)phenyl)acrylamide]	98%	91%	97%	94%	98%	95%
C=CC(=O)Nc1ccc(Sc2nc(Nc3ccc(OCCCN(CC)CC)cc3)ncc2C)cc1 [Compound 291, N-(4-(2-(4-(3-(diethylao)propoxy)phenylao)-5-methylpyrimidin-4-ylthio)phenyl)acrylamide]	99%	95%	99%	96%	100%	100%
CC#CC(=O)Nc1ccc(Sc2ccnc(Nc3cccc(N4CCOCC4)c3)n2)cc1 [Compound 233, N-(4-(2-(3-morpholinophenylao)pyrimidin-4-ylthio)phenyl)but-2-ynamide]	89%		85%	98%	99%	99%
C=CC(=O)Nc1cccc(Sc2ccnc(Nc3cccc(N4CCOCC4)c3)n2)c1 [Compound 110, N-(3-(2-(3-morpholinophenylao)pyrimidin-4-ylthio)phenyl)acrylamide]	100%	100%	100%	100%		
C=CC(=O)Nc1ccc(Sc2nc(Nc3ccc(N4CCOCC4)cc3)ncc2C)c(C)c1 [Compound 163, N-(3-methyl-4-(5-methyl-2-(4-morpholinophenylao)pyrimidin-4-ylthio)phenyl)acrylamide]	85%		95%	97%	99%	83%
C=CC(=O)Nc1cccc(Sc2ccnc(Nc3ccc(N4CCOCC4)cc3)n2)c1 [Compound 23, N-(3-(2-(4-morpholinophenylamino)pyrimidin-4-ylthio)phenyl)acrylamide]	100%	84%	97%			
C=CC(=O)Nc1ccc(Sc2nc(Nc3cccc(OC)c3)ncc2C)cc1 [Compound 235, N-(4-(2-(3-methoxyphenylao)-5-methylpyrimidin-4-ylthio)phenyl)acrylamide]	79%		86%	96%	99%	86%
C=CC(=O)Nc1ccc(Sc2ccnc(Nc3cccc(N4CCOCC4)c3)n2)cc1 [Compound 77, N-(4-(2-(3-morpholinophenylao)pyrimidin-4-ylthio)phenyl)acrylamide]	100%	100%	100%	100%		
N#Cc1ncn(Cc2ccc(Sc3ccnc(Nc4ccc(N5CCOCC5)cc4)n3)cc2)c1C#N [Compound 201, 1-(4-(2-(4-morpholinophenylao)pyrimidin-4-ylthio)benzyl)-1H-imidazole-4,5-dicarbonitrile]	100%	100%	100%	100%		
Cc1cc(N)ccc1Sc1nc(Nc2ccc(N3CCOCC3)cc2)ncc1C [Compound 162, 4-(4-ao-2-methylphenylthio)-5-methyl-N-(4-morpholinophenyl)pyrimidin-2-ae]	55%		50%	95%	98%	82%
C=CC(=O)Nc1ccc(Sc2ccnc(Nc3ccc(N4CCOCC4)cc3)n2)cc1OC [Compound 123, N-(2-methoxy-4-(2-(4-morpholinophenylao)pyrimidin-4-ylthio)phenyl)acrylamide]	100%	100%	100%	100%		
C=CC(=O)Nc1ccc(Sc2nc(Nc3cccc(N4CCOCC4)c3)ncc2C)cc1 [Compound 237, N-(4-(5-methyl-2-(3-morpholinophenylao)pyrimidin-4-ylthio)phenyl)acrylamide]	92%		96%	97%	99%	98%
C=CC(=O)NCc1cccc(Sc2ccnc(Nc3ccc(N4CCOCC4)cc3)n2)c1 [Compound 112, N-(3-(2-(4-morpholinophenylamino)pyrimidin-4-ylthio)benzyl)acrylamide]	100%	100%	100%	100%		
